Reference: patent publication US20260206757A1, “METHODS OF CONTROLLING UNDESIRABLE PLANTS WITH PPO HERBICIDES AND COMBINATIONS IN HERBICIDE TOLERANT CROP PLANTS” (BASF AGRO B.V., priority 2022, published 2026)

Key:
[1] = test system: Chenopodium album; assay: Greenhouse experiment, post emergence herbicidal activity; format: in vivo; details: CHEAL
Procedure: (§1) For the post emergence treatment, the plants were first grown to the 2 to 4 leaf stage (GS 12/14). The plants were cultivated due to their individual requirements at 10-25° C. and 20-35° C. The plants were irrigated as required.
(§2) Here, the herbicidal compositions were suspended or emulsified in water as distribution medium and sprayed using finely distributing nozzles. 1% methylated seed oil (MSO) has been added as adjuvant to each of the solo and mixture treatments.
(§3) In the greenhouse experiments, the herbicidal activity for the individual herbicidal compositions (solo and mixture applications) was assessed 20/21 days after treatment (DAT).
(§4) The evaluation for the damage on undesired weeds caused by the chemical compositions was carried out using a scale from 0 to 100%, compared to the untreated control plants. Here, 0 means no damage and 100 means complete destruction of the plants.

[2] = test system: Sorghum halepense; assay: as above; format: in vivo; details: SORHA, BBCH 12-14, Saflufenacil 4, Bifenox 168 g ai/ha
Procedure: as §1, §2, §3, §4

[3] = test system: Portulaca oleracea; assay: as above; format: in vivo; details: POROL, BBCH 12-14, Flumioxazin 4, Bifenox 168 g ai/ha
Procedure: as §1, §2, §3, §4

[4] = test system: Convolvulus arvensis; assay: as above; format: in vivo; details: CONAR
Procedure: as §1, §2, §3, §4

[5] = test system: Abutilon theophrasti; assay: as above; format: in vivo; details: ABUTH
Procedure: as §1, §2, §3, §4

[6] = test system: Sonchus arvensis; assay: as above; format: in vivo; details: SONAR
Procedure: as §1, §2, §3, §4

[7] = test system: Mercuralis annua; assay: as above; format: in vivo; details: MERAN
Procedure: as §1, §2, §3, §4

[8] = test system: Polygonum aviculare; assay: as above; format: in vivo; details: POLAV
Procedure: as §1, §2, §3, §4

[9] = test system: Papaver rhoeas; assay: as above; format: in vivo; details: PAPRH
Procedure: as §1, §2, §3, §4

[10] = test system: Ambrosia artemisiifolia; assay: as above; format: in vivo; details: AMBEL
Procedure: as §1, §2, §3, §4

[11] = test system: HELAN Pacino; assay: Greenhouse experiment, crop safety of sunflower; format: in vivo, Helianthus annuus; details: scale 0 to 100%
Procedure: as §1, §2, §3, §4

[12] = test system: HELAN w F(383)I; assay: Greenhouse experiment, crop safety of PPO inhibitor tolerant sunflower; format: in vivo, Helianthus annuus; details: scale 0 to 100%
Procedure: as §1, §2, §3, §4

[13] = test system: Matricaria chamomilla; assay: Greenhouse experiment, post emergence herbicidal activity; format: in vivo; details: MATCH
Procedure: as §1, §2, §3, §4

[14] = test system: Hibiscus trionum; assay: as above; format: in vivo; details: HIBTR
Procedure: as §1, §2, §3, §4

[15] = test system: Echinochloa crus-galli; assay: as above; format: in vivo; details: ECHCG
Procedure: as §1, §2, §3, §4

[16] = test system: Solanum nigrum; assay: as above; format: in vivo; details: SOLNI, BBCH 12-14, Flumioxazin 1, Fomesafen 123 g ai/ha
Procedure: as §1, §2, §3, §4

[17] = test system: Setaria viridis; assay: as above; format: in vivo; details: SETVI
Procedure: as §1, §2, §3, §4

[18] = test system: Echinochloa crus-galli; assay: Field experiment, post-emergence herbicidal activity; format: in vivo; details: ECHCG, postemergence
Procedure: (§5) Trial Objective: Saflufenacil in tank mix with Pendimethalin efficacy on weeds and grasses in early post-emergence of the weeds
(§6) On field test sites, natural weed infestation was treated, pre-emergence of the weeds on bare soil or post-emergence of the weeds.
(§7) For the post emergence treatment, the weedy plants were treated between the 2-4 true leaf stage (GS12-14) and the 6 true leaf stage (GS 16). The herbicidal compositions were suspended or emulsified in water as distribution medium and sprayed with commercial flat fan nozzles using between 100 and 200 l/ha water.
as §4, with “In the following experiments, the herbicidal activity for the individual herbicidal compositions (solo and mixture applications) was assessed up to 36 days after treatment (DAT). The” for “The”, “assessments” for “evaluation”
(§8) [formula] • where X=effect in percent using herbicide (A) at an application rate a; • Y=effect in percent using herbicide (B) at an application rate b; • E=expected effect (in %) of herbicide (A)+herbicide (B) at application rates a+b.
(§9) The value E corresponds to the effect (plant damage or injury) which is to be expected if the activity of the individual compounds is additive. If the observed effect is higher than the value E calculated according to the Colby equation, a synergistic effect is present.

[19] = test system: Amaranthus retroflexus; assay: as above; format: in vivo; details: AMARE, postemergence
Procedure: as §5, §6, §7
as §4, with “In the following experiments, the herbicidal activity for the individual herbicidal compositions (solo and mixture applications) was assessed up to 36 days after treatment (DAT). The” for “The”, “assessments” for “evaluation”
as §8, §9

[20] = test system: Mercuralis annua; assay: as above; format: in vivo; details: MERAN, postemergence, Saflufenacil 12.5, Pendimethalin 1365 g ai/ha
Procedure: as §5, §6, §7
as §4, with “In the following experiments, the herbicidal activity for the individual herbicidal compositions (solo and mixture applications) was assessed up to 36 days after treatment (DAT). The” for “The”, “assessments” for “evaluation”
as §8, §9

[21] = test system: Erigeron canadensis; assay: Greenhouse experiment, post emergence herbicidal activity; format: in vivo; details: ERICA, BBCH 12-14, Flumioxazin 1, Pyraflufen-ethyl 1.5 g ai/ha
Procedure: as §1, §2, §3, §4

[22] = test system: Eleusine indica; assay: Field experiment, pre-emergence herbicidal activity on bare ground; format: in vivo; details: ELEIN, preemergence, Saflufenacil 25, Sulfentrazone 210 g ai/ha
Procedure: (§10) Trial Objective: Efficacy of Saflufenacil in tank mix with Flumioxazin applied in pre-emergence of the weeds on bare ground.
(§11) Trial Objective: Efficacy of Saflufenacil in tank mix with Sulfentrazone applied in pre-emergence of the weeds on bare ground.
as §6
(§12) For the pre-emergence treatment, the active compounds, suspended or emulsified in water, were applied by means of finely distributing nozzles on bare ground.
as §4, with “In the following experiments, the herbicidal activity for the individual herbicidal compositions (solo and mixture applications) was assessed up to 36 days after treatment (DAT). The” for “The”, “assessments” for “evaluation”
as §8, §9

[23] = test system: Urochloa texana; assay: as above; format: in vivo; details: PANTE, preemergence, Saflufenacil 25, Sulfentrazone 210 g ai/ha
Procedure: as §10, §11, §6, §12
as §4, with “In the following experiments, the herbicidal activity for the individual herbicidal compositions (solo and mixture applications) was assessed up to 36 days after treatment (DAT). The” for “The”, “assessments” for “evaluation”
as §8, §9

[24] = BBCH 12-14, Saflufenacil 1, Bifenox 168 g ai/ha
[25] = BBCH 12-14, Flumioxazin 0.5, Bifenox 168 g ai/ha
[26] = BBCH 12-14, Saflufenacil 0.5, Bifenox 168 g ai/ha
[27] = BBCH 12-14, Saflufenacil 0.5, Clethodim 30 g ai/ha
[28] = BBCH 12-14, Flumioxazin 2, Fomesafen 123 g ai/ha
[29] = BBCH 12-14, Flumioxazin 2, Halauxifen 1 g ai/ha
[30] = BBCH 12-14, Flumioxazin 0.5, Halauxifen 1 g ai/ha
[31] = BBCH 12-14, Saflufenacil 1, Imazamox 10 g ai/ha
[32] = BBCH 12-14, Flumioxazin 0.5, Imazamox 10 g ai/ha
[33] = Saflufenacil 12.5, Pendimethalin 1064 g ai/ha
[34] = BBCH 12-14, Flumioxazin 0.5, Pyraflufen-ethyl 1.5 g ai/ha
[35] = BBCH 12-14, Flumioxazin 2, Tribenuron-methyl 6 g ai/ha

COC(=O)c1cc(Oc2ccc(Cl)cc2Cl)ccc1[N+](=O)[O-] [Bifenox, Methyl 5-(2,4-dichlorophenoxy)-2-nitrobenzoate]
% Herbicidal activity ([1]; BBCH 12-14, Flumioxazin 1, Bifenox 168 g ai/ha): 20%
% Herbicidal activity [2]: 10%
% Herbicidal activity [3]: 10%
% Herbicidal activity [4, 24]: 75%
% Herbicidal activity ([5]; BBCH 12-14, Flumioxazin 2, Bifenox 168 g ai/ha): 55%
% Herbicidal activity [5, 24]: 80%
% Herbicidal activity [6, 25]: 30%
% Herbicidal activity [7, 26]: 55%
% Herbicidal activity ([8]; BBCH 12-14, Flumioxazin 4, Bifenox 168 g ai/ha): 20%
% Herbicidal activity [9, 25]: 10%
% Herbicidal activity [9, 26]: 5%
% Herbicidal activity [10, 24]: 60%
Observed crop damage 21 days after treatment [11, 25]: 15%
Observed crop damage 21 days after treatment [12, 25]: 5%

CCSC(C)CC1CC(=O)C(/C(CC)=N/OC/C=C/Cl)=C(O)C1 (centres unmarked) [Clethodim]
% Herbicidal activity [13, 27]: 0%
% Herbicidal activity [14, 27]: 10%
% Herbicidal activity ([1]; BBCH 12-14, Saflufenacil 4, Clethodim 30 g ai/ha): 0%
% Herbicidal activity [4, 27]: 0%
% Herbicidal activity [6, 27]: 5%
% Herbicidal activity [8, 27]: 0%
% Herbicidal activity ([10]; BBCH 12-14, Saflufenacil 1, Clethodim 30 g ai/ha): 10%

CS(=O)(=O)NC(=O)c1cc(Oc2ccc(C(F)(F)F)cc2Cl)ccc1[N+](=O)[O-] [Fomesafen, 5-[2-Chloro-4-(trifluoromethyl)phenoxy]-N-(methanesulfonyl)-2-nitrobenzamide]
% Herbicidal activity [15, 28]: 85%
% Herbicidal activity ([15]; BBCH 12-14, Saflufenacil 4, Fomesafen 123 g ai/ha): 95%
% Herbicidal activity ([13]; BBCH 12-14, Flumioxazin 1, Fomesafen 123 g ai/ha): 85%
% Herbicidal activity [1, 28]: 80%
% Herbicidal activity [16]: 90%
% Herbicidal activity ([4]; BBCH 12-14, Flumioxazin 0.5, Fomesafen 123 g ai/ha): 70%
% Herbicidal activity ([5]; BBCH 12-14, Saflufenacil 2, Fomesafen 1 g ai/ha): 94%

COc1c(Cl)ccc(-c2cc(N)c(Cl)c(C(=O)O)n2)c1F [Halauxifen]
% Herbicidal activity [13, 29]: 5%
% Herbicidal activity ([13]; BBCH 12-14, Saflufenacil 2, Halauxifen 1 g ai/ha): 65%
% Herbicidal activity [4, 30]: 60%
% Herbicidal activity ([4]; BBCH 12-14, Saflufenacil 0.5, Halauxifen 1 g ai/ha): 70%
% Herbicidal activity [6, 29]: 65%
% Herbicidal activity [17, 30]: 70%
% Herbicidal activity [9, 30]: 95%
Observed crop damage 21 days after treatment [11, 30]: 5%
Observed crop damage 21 days after treatment [12, 30]: 15%

COCc1cnc(C2=NC(C)(C(C)C)C(=O)N2)c(C(=O)O)c1 (centres unmarked) [Imazamox, 5-(methoxymethyl)-2-(4-methyl-5-oxo-4-propan-2-yl-1H-imidazol-2-yl)pyridine-3-carboxylic acid]
% Herbicidal activity [13, 31]: 35%
% Herbicidal activity [14, 32]: 65%
% Herbicidal activity ([5]; BBCH 12-14, Flumioxazin 1, Imazamox 10 g ai/ha): 84%
% Herbicidal activity [7, 32]: 30%
% Herbicidal activity ([17]; BBCH 12-14, Saflufenacil 0.5, Imazamox 10 g ai/ha): 75%
% Herbicidal activity ([10]; BBCH 12-14, Flumioxazin 4, Imazamox 10 g ai/ha): 85%
% Herbicidal activity [10, 31]: 75%

CCC(CC)Nc1c([N+](=O)[O-])cc(C)c(C)c1[N+](=O)[O-] [Pendimethalin]
% Herbicidal activity [18, 33]: 80%
% Herbicidal activity ([18]; Saflufenacil 12.5, Pendimethalin 1365 g ai/ha): 36%
% Herbicidal activity ([18]; Saflufenacil 50, Pendimethalin 1064 g ai/ha): 80%
% Herbicidal activity ([19]; Saflufenacil 12.5, Pendimethalin 840 g ai/ha): 37%
% Herbicidal activity [19, 33]: 80%
% Herbicidal activity [20]: 42%

CCOC(=O)COc1cc(-c2nn(C)c(OC(F)F)c2Cl)c(F)cc1Cl [Pyraflufen-ethyl, ethyl 2-[2-chloro-5-[4-chloro-5-(difluoromethoxy)-1-methylpyrazol-3-yl]-4-fluorophenoxy]acetate]
% Herbicidal activity [21]: 80%
% Herbicidal activity ([4]; BBCH12-14, Flumioxazin 0.5, Pyraflufen-ethyl 1.5 g ai/ha): 70%
% Herbicidal activity [6, 34]: 98%
% Herbicidal activity [8, 34]: 90%

Cc1nn(-c2cc(NS(C)(=O)=O)c(Cl)cc2Cl)c(=O)n1C(F)F [Sulfentrazone, N-{2,4-Dichloro-5-[4-(difluoromethyl)-3-methyl-5-oxo-4,5-dihydro-1H-1,2,4-triazol-1-yl]phenyl}methanesulfonamide]
% Herbicidal activity [22]: 80%
% Herbicidal activity [23]: 45%

COC(=O)c1ccccc1S(=O)(=O)NC(=O)N(C)c1nc(C)nc(OC)n1 [Tribenuron-methyl, Methyl 2-[[(4-methoxy-6-methyl-1,3,5-triazin-2-yl)-methylcarbamoyl]sulfamoyl]benzoate]
% Herbicidal activity [17, 35]: 25%
% Herbicidal activity [9, 35]: 95%
% Herbicidal activity ([10]; BBCH 12-14, Saflufenacil 1, Tribenuron-methyl 6 g ai/ha): 90%
